The values below come from US10406134B2, “Methods of treating an overweight subject” (Zafgen, Inc., priority 2010, dated 2019).

Assay [1] can be described thus: 7-day oral weight loss study in diet-induced obese mice. Format: in vivo, C57BL/6NTac mice. The following applies: DIO mice; for weight change over the course of the study: 1.0 mg/kg oral once a day for 7 days. As to the method: A weight loss study was conducted in obese mice. The mice in this study were not genetically obese, but prior to and during the study, obesity was induced by a high-fat diet. Twelve week-old C57BL/6NTac mice, maintained on a 60% fat diet prior to and during the study, were separated into seven groups, eight animals per group. Average body weight of the mice was approximately 47 g at the start of the study.
Each of six groups was orally administered 1.0 mg/kg of a compound ([…] compounds B. C, D, E, F and G as disclosed herein), in 10% gelucire in deoinised water. Each of these six groups was administered a different compound. One group was orally administered fumagillin at 1.0 mg/kg (group 201) in 10% gelucire in deoinised water, and one group was administered 10% gelucire in deoinised water (vehicle). Mice received administrations once a day for 7 days.
(Data analyzed by ANCOVA with body weight on Day 1 as covariate followed by multiple tests against vehicle group: *p<0.05; **p<0.01, ***p<0.001.)
A weight loss study was conducted in obese mice, similar to Example 5. Twelve week-old C57BL/6NTac mice, maintained on a 60% fat diet prior to and during the study, were separated into seven groups, eight animals per group. Average body weight of the mice was approximately 47 g at the start of the study.
The group was orally administered […] of a compound H, in 10% gelucire in deoinised water. Mice received administrations once a day for 7 days. After 7 days, the average weight loss of the mice was 13.2%.

Assay [2] deals with Thioredoxin-1 (TXN) in B16F10 cells. Kind of assay: N-terminal chymotryptic fragments of TXN measured by LC/MS in B16F10 cells treated with fumagillin. It is filed as cell-based. As for the experimental part:
B16F10 cells were treated with increasing concentrations of fumagillin. N-terminal chymotryptic fragments of TXN were measured by liquid chromatography/mass spectrometry (LC/MS). […] The EC50 of fumagillin to increase Met-TXN acetylated Met-TXN levels is <10 nM.

Assay [3] deals with TXN in Cos-1 cells. Kind of assay: FLAG-tagged TXN expression in transfected Cos-1 cells (gel). It is filed as cell-based. As to the method:
(§1) EC50 of fumagillin to increase TXN levels is <10 nM.

Assay [4] is described as follows: 10-day oral gavage in C57BL/6 mice conditioned on a high fat diet. Conditions: 0.3 or 3 mg/kg daily oral gavage, 10 days. Format: in vivo. The source says: (§2) Oral administration of the MetAP2 inhibitor fumagillin causes an increase in circulating ketone bodies, as measured by concentration of beta hydroxybutyrate, which indicates an increase in the breakdown of stored fat.

Assay [5] is described as follows: 250-day diet admixture in C57BL/6 mice conditioned on a high fat diet. It is filed as in vivo. As to the method:
as §2
In addition to showing an increase in beta hydroxybutyrate concentration, C57BL/6 mice conditioned on a high fat diet and treated with fumagillin (ZGN-201) as a diet admixture (1 mg/kg daily for 250 days) also experienced a reduction in body fat by approximately 40 percent (FIG. 6). Once attaining the maximum weight reduction, mice treated daily with 1 mg/kg fumagillin maintained a weight that was 25% less than that of age-matched mice maintained on normal mouse chow diet (lean mice, FIG. 6) for the duration of the experiment.
Adipose tissue in mice fed a high-fat diet show distinctive crown-like structures not seen in lean mice. These crown-like structures were also absent from the adipose tissue of fumagillin-treated mice.

The test system of assay [6] is TXN in 293T cells. Kind of assay: FLAG-tagged TXN expression in transfected 293T cells (gel). It is filed as cell-based. The following applies: 293T cells transfected with FLAG-tagged TXN. As for the experimental part:
as §1

The nature of assay [7]: Oral glucose tolerance test (OGTT) in overweight dogs. It is filed as in vivo. As to the method:
The effects of an 8 week treatment with ZGN-201 (ZGN) on body weight and metabolic parameters in 6 overweight dogs (3 HFF and 3 chow-fed (OWC)) were evaluated. The study was comprised of three phases—pretreatment (PT: 4 weeks), treatment (ZGNTx: 8 weeks), and washout (WO: 4 weeks). FI, BW, blood chemistry and hematology, beta-hydroxybutyrate (BHB), and glycerol were assessed weekly. Oral glucose tolerance tests (OGTT, 0.9 g/kg initial BW) were performed at the end of PT, ZGNTx, and WO.

Assay [8] is described as follows: 8 week oral treatment in overweight dogs, body weight and metabolic parameters. It is filed as in vivo. As to the method:
The effects of an 8 week treatment with ZGN-201 (ZGN) on body weight and metabolic parameters in 6 overweight dogs (3 HFF and 3 chow-fed (OWC)) were evaluated. […] FI, BW, blood chemistry and hematology, beta-hydroxybutyrate (BHB), and glycerol were assessed weekly. Oral glucose tolerance tests (OGTT, 0.9 g/kg initial BW) were performed at the end of PT, ZGNTx, and WO.

A short description of assay [9]: 28-day oral gavage in high fat diet C57BL/6 mice, fat and lean tissue change. The following applies: 0.1 or 0.3 mg/kg oral gavage, 28 days. Format: in vivo. As to the method: C57BL/6 mice were conditioned on a low-fat diet (LF), a high fat diet (HF), or a high-fat diet and treated with fumagillin (ZGN-201) administered by oral gavage at doses of 0.1 or 0.3 mg/kg for 28 days. […] To determine whether the weight loss resulted from loss of fat or loss of lean tissue, the percentage change in fat tissue and lean tissue was determined for LF mice, HF mice, HF mice treated with 0.1 mg/kg fumagillin, and HF mice treated with 0.3 mg/kg fumagillin.
Upon histological examination, the studies of treated obese mice show no effect on growth of new blood vessels in growing fat depots and no effect on blood vessel size or density when compared to animals in which weight loss has been induced by simple energy (food) restriction.

The nature of assay [10]: 14-day treatment of high fat diet-fed C57BL/6 mice, body weight and food intake. The following applies: 1 mg/kg. Format: in vivo. As to the method:
High fat diet-fed C57BL/6 mice were treated with 1 mg/kg of the MetAP2 inhibitor fumagillin (ZGN-201, squares) or vehicle (diamonds) for 14 days (FIG. 10). Body weights (left panel) were determined daily, while food intake (right panel) was assessed every other day by measuring the food consumed by each cage of three mice over the two day period. Data shown in FIG. 10 are means±SEM, n=9 animals. […] First, during the initial two to three days of treatment, no overt changes in food intake or body weight are observed. During this time period key changes in MetAP2 substrates occur, including glyceraldehyde-3-phosphate dehydrogenase and thioredoxin (data not shown). Second, the animals enter a period of rapid weight loss that proceeds until essentially all excess fat deposits are consumed. During this second period, fat oxidation is enhanced and food intake is inhibited.
Weight loss following treatment with therapeutically relevant doses of MetAP2 inhibitors stops once animals attain a normal body composition. […] This third phase can be maintained indefinitely provided the drug is continued (see FIG. 10), or presumably can be maintained in practice through other complementary pharmacologic, dietary, or lifestyle interventions.

Where [11] appears, read: diet admixture 1 mg/kg daily, 250 days.
Setting [12] is: High-fat high fructose dogs, WO.
Setting [13] is: High-fat high fructose dogs, ZGNTx.

SMILES strings stand for the structures.

On to `CO[C@@H]1[C@H](OC(=O)NCCC2CCCN2C)CC[C@]2(CO2)[C@H]1[C@@]1(C)O[C@@H]1CC=C(C)C` (some centres unmarked) [C], for which, in assay [1], the “weight change over the course of the study” value (“weight change over the course” below) is listed as “lost weight”.
Take `CO[C@@H]1[C@H](OC(=O)/C=C/C=C/C=C/C=C/C(=O)O)CC[C@]2(CO2)[C@H]1[C@@]1(C)O[C@@H]1CC=C(C)C` [fumagillin]: the EC50 in assay [2] (Mus musculus, B16-F10, read-out: EC50 to increase Met-TXN acetylated Met-TXN levels) is less than 10 nM. Besides, in assay [2] (increasing concentrations), the “accumulation of N-acetyl TXN(1-4)” value is on record as “significant accumulation” and the “cellular level of TXN containing an intact N-terminal methionine [TXN(1-4)]” value was “significantly increased”. Moreover, in assay [3] (Chlorocebus aethiops, FIG. 4 gel, cell line (Cos-1 or 293T) not specified, read-out: EC50 to increase TXN levels), the EC50 is less than 10 nM. Besides, the “expression of TXN” value in assay [3] (Cos-1 cells transfected with FLAG-tagged TXN) is given as “significantly increased”. Moreover, in assay [4], the beta hydroxybutyrate concentrations entry is reported as “increase” and the “free fatty acid concentration” value is listed as “without an increase”. Also, in [5] (1 mg/kg daily, 250 days), the “retroperitoneal fat pad weight” value is listed as “more similar to that of age-matched lean mice”; the “size and appearance of epididymal fat, peri-renal fat and liver” value is recorded as “more similar to that of age-matched lean mice”. The “maintained weight less than that of age-matched lean mice on normal chow” value in [5] (1 mg/kg daily, after maximum weight reduction) is recorded as 25%. Further, in [5] (1 mg/kg, high fat diet mice), the “fasted glucose and insulin levels, insulin-glucose product” value was “more similar to that of age-matched lean mice”. Besides, in assay [5] (setting [11]), the “hydroxybutyrate concentration at longer time points” value was “Increased hydroxybutyrate concentration persisted” and the “reduction in body fat” value was “approximately 40%”. Besides, in assay [5] (high fat diet mice), the adipocyte size entry is “more similar to that of age-matched lean mice” and the “crown-like structures in adipose tissue” value is given as “absent”. In assay [5] (mice on a high fat diet), the sensitivity to insulin entry is “normalizes sensitivity to insulin”. The “expression of TXN” value in assay [6] was “significantly increased”. In assay [7] (end of 8 week treatment, OGTT), the “reduction in insulin secretion (C-peptide AUC)” value turned out to be 32%. Further, in [7] (end of 8 week treatment, OGTT 0.9 g/kg), the “reversal of the abnormality in the plasma glucose excursion during the OGTT” value amounted to 75%. The “improvement in plasma glucose after the drug was washed out” value in assay [7] (end of washout, OGTT) was “completely reversed”. For the same molecule, the “reduction of FI” value in assay [8] (HFF dogs) was 29%. Besides, in assay [8] (HFF dogs, daily oral, 8 weeks), the “loss of body weight” value was “approximately 8%” and the “loss of excess BW” value worked out at 81%. Moreover, the “weight loss sustained after discontinuation of treatment” value in assay [8] (HFF dogs, eight to ten weeks following discontinuation) is “approximately one half of the initial weight loss was sustained”. Moreover, in [8] (setting [12]), the BHB was found to be 39 ± 7 µM, the FI stood at 1657 ± 147 kcal/day and the Glycerol amounted to 66 ± 25 µM. Moreover, in [8] (High-fat high fructose dogs, WO (4 weeks washout)), the BW stood at 31.7 ± 2.9 kg. For the same molecule, in [8] (setting [13]), the BHB worked out at 76 ± 9 µM, the FI worked out at 1187 ± 258 kcal/day and the Glycerol stood at 131 ± 54 µM. The same molecule yielded a BW in [8] (High-fat high fructose dogs, ZGNTx (8 weeks treatment)) of 30.8 ± 3.4 kg. For the same molecule, the “reduction of FI” value in assay [8] (OWC dogs) is 9%. Besides, the weight gain entry in assay [8] (OWC dogs, daily oral, 8 weeks) is “inhibited weight gain”. In [8] (Overweight chow dogs, WO), this molecule came in with a BHB of 44 ± 5 µM, a BW of 18.6 ± 0.7 kg, an FI of 1116 ± 22 kcal/day and a Glycerol of 86 ± 33 µM. In assay [8] (Overweight chow dogs, ZGNTx), this molecule showed a BHB of 48 ± 11 µM, a BW of 17.8 ± 0.5 kg, an FI of 1255 ± 64 kcal/day and a Glycerol of 143 ± 26 µM. In assay [8] (overweight dogs, treatment), the BHB levels entry was “increased in HFF only” and the glycerol levels entry is listed as “increased”. Also, in assay [9], the body weight result was “reduction in body weight down to the level of low fat fed mice”. In [9] (HF mice), the reduction in fat is on record as 40-50% and the “reduction in lean tissue” value was 5-10%. Further, the “food intake during period of rapid weight loss” value in [10] (14 days, second phase) is “inhibited”. Besides, the “food intake after weight loss reaches a nadir” value in assay [10] (third phase) is reported as “returns to normal levels”. The “weight change over the course” value in assay [1] is recorded as “lost the most weight”.
Take `CO[C@@H]1[C@H](OC(=O)N[C@@H](C(N)=O)C(C)C)CC[C@]2(CO2)[C@H]1[C@@]1(C)O[C@@H]1CC=C(C)C` [B]: the “weight change over the course” value in assay [1] is reported as “lost weight”.
`CCN(CC)C/C=C\c1ccccc1S(=O)(=O)Nc1ccc2c(c1C(=O)O)CCCC2` [H] displayed an average weight loss in [1] (100.0 mg/kg oral once a day, after 7 days) of 13.2%.

Broadly, the EC50 is the concentration that produces a half-maximal response.
